Assay results as given in PubChem BioAssay (NCI).
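Compound exposure: 48 hours, 5 concentrations, 96-well plates. TGI is the concentration that stops growth completely.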 Where a SMILES comes first, the peptide text is derived from it. Bridges are numbered along the chain shown (N, C = ends). [ ]: non-standard residue; d: D form. The star is where a group is joined. ξ: configuration not given here. X26 = O=C(/C=C/C=C/C=C/C=C/C=C/C(=O)*)NC1=C(O)CCC1=O; Pro(4R-Me) = C[C@H]1CN[C@H](C(=O)O)C1; NMeA = CN[C@@H](C)C(=O)O; ξF = NC(Cc1ccccc1)C(=O)O; ξA = CC(N)C(=O)O

Assays:
Experiment in all cases: growth of human tumour cells (NCI), 48 h
[1] = test system: 786-0 renal
[2] = test system: A498 renal
[3] = test system: A549 NSCLC
[4] = test system: ACHN renal
[5] = test system: BT-549 breast
[6] = test system: CAKI-1 renal
[7] = test system: CCRF-CEM leukemia
[8] = test system: COLO 205 colon
[9] = test system: DU-145 prostate
[10] = test system: EKVX NSCLC
[11] = test system: HCC-2998 colon
[12] = test system: HCT-116 colon
[13] = test system: HCT-15 colon
[14] = test system: HL-60(TB) leukemia
[15] = test system: HOP-62 NSCLC
[16] = test system: HOP-92 NSCLC
[17] = test system: HS 578T breast
[18] = test system: HT29 colon
[19] = test system: IGROV1 ovarian
[20] = test system: K-562 leukemia
[21] = test system: KM12 colon
[22] = test system: LOX IMVI melanoma
[23] = test system: M14 melanoma
[24] = test system: MALME-3M melanoma
[25] = test system: MCF7 breast
[26] = test system: MDA-MB-231 breast
[27] = test system: MDA-MB-435
[28] = test system: MDA-N
[29] = test system: NCI-H23 lung
[30] = test system: NCI-H460 lung
[31] = test system: NCI-H522 lung
[32] = test system: NCI/ADR-RES ovarian
[33] = test system: OVCAR-3 ovarian
[34] = test system: OVCAR-4 ovarian
[35] = test system: OVCAR-5 ovarian
[36] = test system: PC-3 prostate
[37] = test system: RPMI-8226 leukemia
[38] = test system: RXF 393 renal
[39] = test system: SF-268 CNS
[40] = test system: SF-295 CNS
[41] = test system: SF-539 CNS
[42] = test system: SK-MEL-2 melanoma
[43] = test system: SK-MEL-28 melanoma
[44] = test system: SK-MEL-5 melanoma
[45] = test system: SK-OV-3 ovarian
[46] = test system: SN12C renal
[47] = test system: SNB-19 CNS
[48] = test system: SNB-75 CNS
[49] = test system: SR leukemia
[50] = test system: SW-620 colon
[51] = test system: T-47D breast
[52] = test system: TK-10 renal
[53] = test system: U251 CNS
[54] = test system: UACC-257 melanoma
[55] = test system: UACC-62 melanoma
[56] = test system: UO-31 renal

Measured: TGI

CC1NC(=O)[C@H](C)N(C)C(=O)[C@@H]2CCCN2C(=O)[C@@H](NC(=O)C(Cc2ccccc2)NC(=O)/C=C/C=C/C=C/C=C/C=C/C(=O)NC2=C(O)CCC2=O)COC(=O)[C@@H]2C[C@@H](C)CN2C1=O (stereo partly drawn) (X26-[ξF]SP[NMeA][ξA][Pro(4R-Me)]; ester 2-C)
> 100 µM: all assays above
